# Experimental data as given in patent publication US8071612B2, “6-alkenyl and 6-phenylalkyl substituted 2-quinolinones and 2-quinoxalinones as poly(ADP-ribose) polymerase inhibitors” (Janssen Pharmaceutica, NV, priority 2004, dated 2011).
# Target: T1, PARP-1 enzyme (Homo sapiens, UniProt P09874)
# T1 construct: made in house
# Experiment: In vitro Scintillation Proximity Assay (SPA) for PARP-1 inhibitory activity
# Assay type: biochemical
# Details: nicked DNA activated PARP-1, [3H]-NAD+, biotinylated histones; read-out: In vitro SPA pIC50 (converted)
# Description: Compounds of the present invention were tested in an in vitro assay based on SPA technology (proprietary to Amersham Pharmacia Biotech).
# In principle, the assay relies upon the well established SPA technology for the detection of poly(ADP-ribosyl)ation of biotinylated target proteins, i.e histones. This ribosylation is induced using nicked DNA activated PARP-1 enzyme and [^3H]-nicotinamide adenine dinucleotide ([^3H]-NAD^+) as ADP-ribosyl donor.
# As inducer of PARP-1 enzyme activity, nicked DNA was prepared. For this, 25 mg of DNA (supplier: Sigma) was dissolved in 25 ml DNAse buffer (10 mM Tris-HCl, pH 7.4; 0.5 mg/ml Bovine Serum Albumine (BSA); 5 mM MgCl2.6H2O and 1 mM KCl) to which 50 μl DNAse solution (1 mg/ml in 0.15 M NaCl) was added. After an incubation of 90 min. at 37° C., the reaction was terminated by adding 1.45 g NaCl, followed by a further incubation at 58° C. for 15 min. The reaction mixture was cooled on ice and dialysed at 4° C. for respectively 1.5 and 2 hours against 1.5 l of 0.2 M KCl, and twice against 1.5 l of 0.01 M KCl for 1.5 and 2 h respectively. The mixture was aliquoted and stored at −20° C. Histones (1 mg/ml, type II-A, supplier: Sigma) were biotinylated using the biotinylation kit of Amersham and stored aliquoted at −20° C. A stock solution of 100 mg/ml SPA poly(vinyl toluene) (PVT) beads (supplier: Amersham) was made in PBS. A stock solution of [^3]H-NAD^+ was made by adding 120 μl of [^3H]-NAD^+ (0.1 mCi/ml, supplier: NEN) to 6 ml incubation buffer (50 mM Tris/HCl, pH 8; 0.2 mM DTT; 4 mM MgCl2). A solution of 4 mM NAD^+ (supplier: Roche) was made in incubation buffer (from a 100 mM stock solution in water stored at −20° C.). The PARP-1 enzyme was produced using art known techniques, i.e. cloning and expression of the protein starting from human liver cDNA. Information concerning the used protein sequence of the PARP-1 enzyme including literature references can be found in the Swiss-Prot database under primary accession number P09874. Biotinylated histones and PVT-SPA beads were mixed and pre-incubated for 30 min. at room temperature. PARP-1 enzyme (concentration was lot dependent) was mixed with the nicked DNA and the mixture was pre-incubated for 30 min. at 4° C. Equal parts of this histones/PVT-SPA beads solution and PARP-1 enzyme/DNA solution were mixed and 75 μl of this mixture together with 1 μl of compound in DMSO and 25 μl of [^3H]-NAD^+ was added per well into a 96-well microtiterplate. The final concentrations in the incubation mixture were 2 μg/ml for the biotinylated histones, 2 mg/ml for the PVT-SPA beads, 2 μg/ml for the nicked DNA and between 5-10 μg/ml for the PARP-1 enzyme. After incubation of the mixture for 15 min. at room temperature, the reaction was terminated by adding 100 μl of 4 mM NAD^+ in incubation buffer (final concentration 2 mM) and plates were mixed.
# The beads were allowed to sediment for at least 15 min. and plates transferred to a TopCountNXT™ (Packard) for scintillation counting, values were expressed as counts per minute (cpm). For each experiment, controls (containing PARP-1 enzyme and DMSO without compound), a blank incubation (containing DMSO but no PARP-1 enzyme or compound) and samples (containing PARP-1 enzyme and compound dissolved in DMSO) were run in parallel. All compounds tested were dissolved and eventually further diluted in DMSO. In first instance, compounds were tested at a concentration of 10^−5 M or 10^−6M. […] In each test, the blank value was subtracted from both the control and the sample values. The control sample represented maximal PARP-1 enzyme activity. For each sample, the amount of cpm was expressed as a percentage of the mean cpm value of the controls. When appropriate, IC50-values (concentration of the drug, needed to reduce the PARP-1 enzyme activity to 50% of the control) were computed using linear interpolation between the experimental points just above and below the 50% level. […]
# T1 sequence (P09874 whole entry): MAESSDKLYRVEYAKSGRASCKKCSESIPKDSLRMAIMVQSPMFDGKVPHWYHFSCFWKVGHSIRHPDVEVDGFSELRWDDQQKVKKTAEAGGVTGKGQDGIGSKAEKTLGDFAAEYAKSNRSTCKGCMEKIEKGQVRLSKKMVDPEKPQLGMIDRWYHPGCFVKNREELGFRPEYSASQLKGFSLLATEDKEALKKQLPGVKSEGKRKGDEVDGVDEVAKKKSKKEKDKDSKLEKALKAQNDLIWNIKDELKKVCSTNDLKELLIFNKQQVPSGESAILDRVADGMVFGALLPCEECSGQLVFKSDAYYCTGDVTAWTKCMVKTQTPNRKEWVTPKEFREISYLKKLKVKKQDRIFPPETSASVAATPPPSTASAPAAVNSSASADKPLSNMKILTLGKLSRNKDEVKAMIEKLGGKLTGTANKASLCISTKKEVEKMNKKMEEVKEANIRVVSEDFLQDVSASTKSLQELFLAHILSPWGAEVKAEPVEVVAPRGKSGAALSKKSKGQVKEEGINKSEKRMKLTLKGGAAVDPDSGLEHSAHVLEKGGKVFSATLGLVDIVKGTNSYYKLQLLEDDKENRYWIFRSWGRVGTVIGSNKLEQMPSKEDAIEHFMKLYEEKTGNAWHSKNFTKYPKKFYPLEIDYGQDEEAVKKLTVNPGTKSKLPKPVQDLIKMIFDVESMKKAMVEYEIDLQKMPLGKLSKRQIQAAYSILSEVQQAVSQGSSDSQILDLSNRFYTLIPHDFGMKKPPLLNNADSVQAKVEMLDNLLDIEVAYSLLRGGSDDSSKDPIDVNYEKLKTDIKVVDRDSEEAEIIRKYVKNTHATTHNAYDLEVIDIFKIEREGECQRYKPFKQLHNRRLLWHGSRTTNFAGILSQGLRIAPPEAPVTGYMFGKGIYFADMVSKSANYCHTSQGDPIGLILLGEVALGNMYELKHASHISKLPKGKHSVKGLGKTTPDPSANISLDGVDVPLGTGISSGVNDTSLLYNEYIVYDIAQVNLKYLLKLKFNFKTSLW
row,IC50 [nM],Compound
1,417,CCc1cc2cc(C(c3ccc(Cl)cc3Cl)N3CCC(NCCOC)CC3)ccc2[nH]c1=O (centres unmarked) [Compound 66]
2,211,CCc1cc2cc(C(c3ccccc3Cl)N3CCC(NCCOC)CC3)ccc2[nH]c1=O (centres unmarked) [Compound 74]
3,553,CCc1nc2ccc(CC(c3ccc(Cl)cc3)N3CCC(C(N)=O)CC3)cc2[nH]c1=O (centres unmarked) [Compound 120]
4,459,CCc1nc2cc(C(NCCCN3CCCCC3)c3ccccc3)ccc2[nH]c1=O (centres unmarked) [Compound 51]
5,361,CCc1cc2cc(C(c3ccc(Cl)c(F)c3)N3CCC(NCCOC)CC3)ccc2[nH]c1=O (centres unmarked) [Compound 63]
6,762,CCc1cc2cc(C(c3ccc(C(F)(F)F)cc3)N3CCC(NCCOC)CC3)ccc2[nH]c1=O (centres unmarked) [Compound 70]
7,322,CCc1cc2cc(C(=C3CCN(C/C=C/c4ccccc4)CC3)c3ccc4c(c3)OCCO4)ccc2[nH]c1=O [Compound 142]
8,124,CCc1cc2cc(C(c3c(Cl)cccc3Cl)N3CCC(NCCOC)CC3)ccc2[nH]c1=O (centres unmarked) [Compound 73]
9,516,O=c1[nH]c2ccc(C(NCCN3CCC(c4n[nH]c5cc(F)ccc45)CC3)c3cccc(C(F)(F)F)c3)cc2c2ccccc12 (centres unmarked) [Compound 47]
10,292,CCc1cc2cc(C(c3ccc(N(C)C)cc3)N3CCC(NCCOC)CC3)ccc2[nH]c1=O (centres unmarked) [Compound 65]
11,678,CCc1nc2cc(C(NCCN3CCC(C(=O)c4ccc(F)cc4)CC3)c3ccccc3)ccc2[nH]c1=O (centres unmarked) [Compound 50]
12,830,CCc1nc2cc(CC(c3ccc(Cl)cc3)N3CCC(O)(c4ccccc4)CC3)ccc2[nH]c1=O (centres unmarked) [Compound 121]
13,428,CCc1cc2cc(/C(=C\CN(C)C)c3ccc(Cl)cc3)ccc2[nH]c1=O [Compound 137]
14,296,CCc1cc2cc(C(c3ccc(Cl)cc3)N3CCN(C)CC3)ccc2[nH]c1=O (centres unmarked) [Compound 60]
15,198,CCc1nc2cc(CC(c3ccccc3)n3ccnc3)ccc2[nH]c1=O (centres unmarked) [Compound 119]
16,208,CCc1cc2cc(C(c3ccc(F)cc3)N3CCC(NCCOC)CC3)ccc2[nH]c1=O (centres unmarked) [Compound 67]

row,IC50 [nM],Compound
1,582,CCc1nc2cc(C(c3ccccc3)N3CCC(NCCOC)CC3)ccc2[nH]c1=O (centres unmarked) [Compound 58]
2,564,CCc1nc2cc(CC(=O)c3ccccc3)ccc2[nH]c1=O [Compound 116]
3,92.3,CCc1cc2cc(C(NCCN3CCC(C(=O)c4ccc(F)cc4)CC3)c3ccc4c(c3)OCCO4)ccc2[nH]c1=O (centres unmarked) [Compound 44]
4,33.6,CCc1cc2cc(C(NCCCN(C)Cc3ccccc3)c3ccc4c(c3)OCCO4)ccc2[nH]c1=O (centres unmarked) [Compound 57]
5,217,CCc1cc2cc(C(c3cccc(F)c3)N3CCC(NCCOC)CC3)ccc2[nH]c1=O (centres unmarked) [Compound 59]
6,74.6,O=c1[nH]c2ccc(C(NCCCN3CCCCC3)c3cccc(C(F)(F)F)c3)cc2c2ccccc12 (centres unmarked) [Compound 32]
7,276,CCc1cc2cc(C(c3ccc4ccccc4c3)N3CCC(NCCOC)CC3)ccc2[nH]c1=O (centres unmarked) [Compound 61]
8,411,CCc1cc2cc(C(c3cccc4ccccc34)N3CCC(NCCOC)CC3)ccc2[nH]c1=O (centres unmarked) [Compound 76]
9,869,CCc1nc2cc(CCC(c3ccc(Cl)cc3)n3ccnc3)ccc2[nH]c1=O (centres unmarked) [Compound 118]
10,406,CN(CCCNC(c1cccc(C(F)(F)F)c1)c1ccc2[nH]c(=O)c3ccccc3c2c1)Cc1ccccc1 (centres unmarked) [Compound 49]
11,312,CCc1cc2cc(C(c3ccccc3F)N3CCC(NCCOC)CC3)ccc2[nH]c1=O (centres unmarked) [Compound 62]
12,356,CCc1cc2cc(C(c3ccccc3C)N3CCC(NCCOC)CC3)ccc2[nH]c1=O (centres unmarked) [Compound 82]
13,498,CCc1cc2cc(C(c3ccc(Cl)c(Cl)c3)N3CCC(NCCOC)CC3)ccc2[nH]c1=O (centres unmarked) [Compound 83]
14,318,CCc1nc2cc(C(c3ccccc3)N3CCC(=O)CC3)ccc2[nH]c1=O (centres unmarked) [Compound 84]
15,299,CCc1cc2cc(C(c3ccc(OCCCN(C)C)cc3)N3CCC(NCCOC)CC3)ccc2[nH]c1=O (centres unmarked) [Compound 36]
16,511,CCc1nc2cc(C(NCCCN(C)Cc3ccccc3)c3ccccc3)ccc2[nH]c1=O (centres unmarked) [Compound 56]

# The next lines start with the molecule.
row,Compound,IC50 [nM]
1,CCc1cc2cc(/C(=C/CN3CCCCC3)c3ccc4c(c3)OCCO4)ccc2[nH]c1=O [Compound 129],57.1
2,CCc1cc2cc(/C(=C\CN(C)C)c3ccc4c(c3)OCCO4)ccc2[nH]c1=O [Compound 136],137
3,CCc1cc2cc(C(c3ccc4c(c3)OCCO4)N3CCC(NCCOC)CC3)ccc2[nH]c1=O (centres unmarked) [Compound 33],25.7
4,CCc1cc2cc(C(c3cccc(OC(F)(F)F)c3)N3CCC(NCCOC)CC3)ccc2[nH]c1=O (centres unmarked) [Compound 34],525
5,CCc1cc2cc(C(OCCN(C)C)c3cccc(Cl)c3)ccc2[nH]c1=O (centres unmarked) [Compound 71],177
6,CCc1cc2cc(C(c3ccc4c(c3)OCCO4)N3CCC(CCN4CCCCC4)CC3)ccc2[nH]c1=O (centres unmarked) [Compound 31],21.3
7,O=CNC(c1cccc(C(F)(F)F)c1)c1ccc2[nH]c(=O)c3ccccc3c2c1 (centres unmarked) [Compound 97],31
8,CCc1cc2cc(C(c3ccc4c(c3)OCO4)n3nc(C4CCNCC4)c4ccc(F)cc43)ccc2[nH]c1=O (centres unmarked) [Compound 42],948
9,CCc1cc2cc(C(c3ccc(C(F)(F)F)cc3F)N3CCC(NCCOC)CC3)ccc2[nH]c1=O (centres unmarked) [Compound 35],802
10,CCc1cc2cc(C(c3ccc(F)cc3F)N3CCC(NCCOC)CC3)ccc2[nH]c1=O (centres unmarked) [Compound 68],373
11,CCc1cc2cc(C(=C3CCN(CCCn4c(=O)[nH]c5ccccc54)CC3)c3ccc4c(c3)OCCO4)ccc2[nH]c1=O [Compound 141],121
12,CCc1cc2cc(C(c3ccc4c(c3)OCO4)N3CCC(NCCOC)CC3)ccc2[nH]c1=O (centres unmarked) [Compound 54],101
13,CCc1cc2cc(/C(=C\CN3CCCCC3)c3ccc4c(c3)OCCO4)ccc2[nH]c1=O [Compound 130],188
14,CCc1cc2cc(C(c3ccc4c(c3)OCCO4)N3CCN(CCN4CCCCC4)CC3)ccc2[nH]c1=O (centres unmarked) [Compound 40],23.7
15,CCc1cc2cc(C(c3ccc4c(c3)OCCO4)N3CCC(c4n[nH]c5cc(F)ccc45)CC3)ccc2[nH]c1=O (centres unmarked) [Compound 46],405
16,CCc1cc2cc(C(c3ccc4c(c3)OCCO4)C3CC[N+](C/C=C/c4ccccc4)(C/C=C/c4ccccc4)CC3)ccc2[nH]c1=O (centres unmarked) [Compound 15],119
17,CCc1cc2cc(/C(=C/CN(C)C)c3ccc4c(c3)OCCO4)ccc2[nH]c1=O [Compound 138],63
18,CCc1cc2cc(C(c3ccc4c(c3)OCCO4)N3CCN(CCN4CCCCCC4)CC3)ccc2[nH]c1=O (centres unmarked) [Compound 43],21.2
19,CCc1cc2cc(C(NCCCN3CCCCC3)c3ccc4c(c3)OCCO4)ccc2[nH]c1=O (centres unmarked) [Compound 52],54.6
20,CCc1cc2cc(C(c3ccc(C)cc3C)N3CCC(NCCOC)CC3)ccc2[nH]c1=O (centres unmarked) [Compound 64],532
21,CCc1cc2cc(C(c3ccc4c(c3)OCCO4)N3CCN(CC4CCCCC4)CC3)ccc2[nH]c1=O (centres unmarked) [Compound 41],122
22,CCc1cc2cc(C(=C3CCN(CC(O)COc4ccc(F)cc4)CC3)c3ccc4c(c3)OCCO4)ccc2[nH]c1=O (centres unmarked) [Compound 143],157
23,CCc1cc2cc(C(OCCN(C)C)c3ccc4c(c3)OCCO4)ccc2[nH]c1=O (centres unmarked) [Compound 55],18.4
24,CCc1cc2cc(C(c3cc(C(F)(F)F)ccc3Cl)N3CCC(NCCOC)CC3)ccc2[nH]c1=O (centres unmarked) [Compound 69],456
